“And” between values parts separate entries of the source, which are not always exact repeats. Equal entries are not always repeated. Where two headings read alike, the source gives them in different places.
Assays:
[1] = tested on: HTLA-230 human stage-IV NB cells; assay: Cell viability assay (CellTiter 96 AQueous One Solution) on HTLA-230 NB cells; type: cell-based; settings: for viability at 0.5 µM: series 0.5–50 µM
Description: (§1) HTLA-230 human stage-IV NB cells were kindly provided by Dr. L. Raffaghello (G. Gaslini Institute, Genoa, Italy). The HTLA-ER cells were selected by treating HTLA-230 parental cells for six months with increasing concentrations of etoposide, as previously reported. Both cell populations were maintained in RPMI 1640 medium (Euroclone Spa, Pavia, Italy) supplemented with 10% fetal bovine serum (FBS, Euroclone Spa, Pavia, Italy), 1% L-glutamine (Euroclone Spa, Pavia, Italy), and 1% Penicillin/Streptomicin (Euroclone Spa, Pavia, Italy) and grown in standard conditions (37 °C humidified incubator with 5% CO2).
(§2) To determine the cytotoxic effects of BPPB, in vitro time- and dose-dependent experiments were carried out. Cells were first treated for 24, 48, and 72 h, with increasing concentrations (0.5–50 µM) of the compound. In a subsequent series of the experiments, cells were treated for 24, 48, and 72 h with increasing concentration of BPPB in the range of 0.1–2 µM. […] Cell cultures were carefully monitored before and during the experiments to ensure optimal cell density.
(§3) Cell viability was determined by using the CellTiter 96® AQueous One Solution Cell Proliferation Assay (Promega, Madison, WI, USA), as previously described. Briefly, cells (10,000 cells/well) were seeded into 96-well plates (Corning Incorporated, Corning, NY, USA) and then treated. Next, cells were incubated with 20 µL of CellTiter, and the absorbance at 490 nm was recorded using a microplate reader (EL-808, BIO-TEK Instruments Inc., Winooski, VT, USA). IC50 was evaluated by GraphPad Prism 5.4.2 Software (GraphPad Software, Boston, MA, USA).
(§4) Results are expressed as the means ± S.D. of at least four independent experiments in which six different wells were analyzed every time for each experimental condition. The statistical significance of differences was determined by two-way analysis of variances (ANOVA) followed by Tukey’s multicomparison test using GraphPad Prism 8.0 (GraphPad Software v8.0, San Diego, CA, USA); p < 0.05 was considered statistically significant. Asterisks or other indicators (see Figures captions) indicate the following p-value ranges: p > 0.05 no symbols, * = p < 0.05, ** = p < 0.01, *** = p < 0.001, **** = p < 0.0001.

[2] = In vitro hemolytic toxicity on red blood cells; type: cell-based, human; settings: human
Description: (§5) The hemolytic ratio was evaluated, as recently reported with slight changes, in EDTA-blood samples from four healthy donors from the San Martino Hospital Transfusion Centre. Specifically, red blood cells (RBCs) were isolated by diluting 0.2 mL of blood with 0.4 mL of phosphate-buffered saline (PBS) and centrifuging it for 5 min at 10,000× g. The pellet, consisting of RBCs, was washed 5 times with 1.0 mL PBS and finally resuspended with 2.0 mL PBS. The assay was carried out on 0.1 mL of resuspended RBCs added to 0.1 mL of H2O (positive control), 0.1 mL of PBS (negative control), or 0.1 mL of the different concentrations (0.1–50 µM) of the compound to be tested (BPPB). The samples were incubated for 60 min at 37 °C, and at the end, they were centrifuged for 5 min at 10,000× g. Finally, 0.1 mL of supernatant was transferred to a transparent 96-well plate and measured by a spectrophotometer (Dynex Technologies; Chantilly, VA, U.S.A.) at 595 nm. The hemolytic ratio was calculated using the following formula:Hemolytic ratio (%) = (OD TEST − OD NEGATIVE CONTROL)/(OD POSITIVE CONTROL − OD NEGATIVE CONTROL) × 100
(§6) The hemolytic ratio percentage (%) caused by BPPB was assessed as recently reported with slight changes. In particular, EDTA-blood samples from four healthy donors were exposed to increasing concentrations of BPPB (0.1–50 µM).

red blood cells (RBCs) = assay: In vitro hemolytic toxicity on red blood cells; type: cell-based, human; settings: for Hemolysis (hemolytic ratio): 60 min; for IC50: 60 min at 37 °C, 0.1–50 µM, blood of four healthy donors, read-out: IC50 RBCs (concentration needed to cause 50% hemolysis)
Description: as §5, §6

Cos-7 cells = assay: LDH cytotoxicity assay on Cos-7 cells; type: cell-based; settings: 24 h
Description: To assess the cytotoxicity properties of BPPB, the lactate dehydrogenase (LDH) cytotoxicity assay (Abcam, Cat#ab102526) was performed, following manufacturer’s protocol, as previously described. This time, the increasing concentrations of BPPB were in the range 0.4–85.3 µM.
In this study, the cytotoxicity profile of BPPB was assessed in both immortalized human liver cells (HepG2) cells, as in our previous works, and in transformed African green monkey kidney fibroblast cells (Cos-7), as reported in a recent paper. Specifically, we evaluated the cytotoxicity of BPPB by carrying out both the MTT proliferation assay and the lactate dehydrogenase (LHD) cytotoxicity assay, which measures the LDH activity as an indicator of cell death. Both cell lines were exposed for 24 h to increasing concentrations of BPPB (0.4–85.3 µM). Growth inhibition/death were determined by the MTT test, while cell cytotoxicity was determined by LDH assay, with respect to untreated control cells. Results are reported as bar graphs in Figure 8 and as dispersion graphs in Figures S13 and S14 in Supplementary Materials (Section S2).

HepG2 cells = tested on: HepG2 cells; parameters: method as in earlier work; settings: MTT test; Table S1, previously assessed characteristics; cited from earlier work
HTLA-ER cells = assay: Cell viability assay (CellTiter 96 AQueous One Solution) on etoposide-resistant HTLA-ER NB cells; type: cell-based, human
Description: as §1, §2, §3, §4

[3] = 24 h, concentration at which hemolysis was inexistent (concentration not stated)
[4] = 24 h exposure, refined concentration range 0.1–2 µM

**Q.** For c1ccc([P+](CCCCCCCCCCCC[P+](c2ccccc2)(c2ccccc2)c2ccccc2)(c2ccccc2)c2ccccc2)cc1 [BPPB, 1,1-(1,12-dodecanediyl)bis [1,1, 1]-triphenylphosphonium di-bromide], which “Cell viability HTLA-230” value [1, 3] is on record?
**A.** 18.2%

**Q.** What about the IC50 [1, 4] of the same compound?
**A.** 240 nM and 238 nM

**Q.** What about the “Viable cells, both NB cell populations” value ([1]; 24 h treatment, HTLA-230 and HTLA-ER, concentrations leaving more than 98% of RBCs alive) of the same compound?
**A.** 14–18%

**Q.** And the IC50 ([1]; Homo sapiens, HTLA-230, 24 h, 24 h exposure, concentration range 0.5–50 µM)?
**A.** 738 ± 546 nM

**Q.** And the IC50 ([1]; Homo sapiens, HTLA-230, 24 h, 24 h exposure, refined concentration range 0.1–2 µM)?
**A.** 200 nM

**Q.** And the IC50 ([1]; Homo sapiens, HTLA-230, 48 h, 48 h exposure, concentration range 0.5–50 µM)?
**A.** 590 ± 445 nM

**Q.** And the IC50 ([1]; Homo sapiens, HTLA-230, 48 h, 48 h exposure, refined concentration range 0.1–2 µM)?
**A.** 196 ± 21.1 nM

**Q.** What about the IC50 ([1]; Homo sapiens, HTLA-230, 72 h, 72 h exposure, concentration range 0.5–50 µM) of the same compound?
**A.** 203 ± 178 nM

**Q.** And the IC50 ([1]; Homo sapiens, HTLA-230, 72 h, 72 h exposure, refined concentration range 0.1–2 µM)?
**A.** 228 ± 17.6 nM

**Q.** And the viability at 0.25 µM ([1]; Homo sapiens, HTLA-230, 0.25 µM, 24 h, series 0.1–2 µM)?
**A.** 53.1%

**Q.** What about the viability at 0.5 µM ([1]; Homo sapiens, HTLA-230, 24 h) of the same compound?
**A.** 46%

**Q.** What about the viability at 0.5 µM ([1]; Homo sapiens, HTLA-230, 48 h) of the same compound?
**A.** 41.6%

**Q.** What about the viability at 0.5 µM ([1]; Homo sapiens, HTLA-230, 72 h) of the same compound?
**A.** 21.7%

**Q.** What about the viability at 5 µM ([1]; Homo sapiens, HTLA-230, concentrations ≥ 5 µM, 24, 48, 72 h) of the same compound?
**A.** 16 to 18%

**Q.** What about the “Selectivity indexes (SIs), all non-tumoral cells vs both NB cell populations” value ([1]; after 24 h treatments, MRC-5, Cos-7, HepG2, RBCs vs HTLA-230 and HTLA-ER) of the same compound?
**A.** 2.5–74.6

**Q.** And the selectivity ratio at 60 min ([2]; NB cells 24 h exposure, read-out: Selectivity index (SI) = IC50 RBCs / IC50 HTLA-ER)?
**A.** > 10

**Q.** What about the viability at 60 min ([2]; isolated red blood cells, concentration at which both NB cell populations were fully exterminated, read-out: RBC viability) of the same compound?
**A.** 98.4%

**Q.** And the “Hemolysis (hemolytic ratio)” value (red blood cells (RBCs); 10 µM)?
**A.** 25.1%

**Q.** And the “Hemolysis (hemolytic ratio)” value (red blood cells (RBCs); 20 µM)?
**A.** 50.8%

**Q.** What about the IC50 (red blood cells (RBCs)) of the same compound?
**A.** 14900 nM

**Q.** And the IC50 (red blood cells (RBCs); Homo sapiens, Erythrocyte, 1 h)?
**A.** 14900 nM

**Q.** What about the “Selectivity index (SI) = IC50 RBCs / IC50 HTLA-230” value (red blood cells (RBCs); NB cells 24 h exposure) of the same compound?
**A.** > 74

**Q.** And the “Selectivity index (SI) = IC50 RBCs / IC50 HTLA-ER” value (red blood cells (RBCs); NB cells 24 h exposure)?
**A.** 13.56

**Q.** And the “LDH release Cos-7 (optical density)” value (Cos-7 cells; 4.3 µM)?
**A.** 0.30 OD

**Q.** And the “LDH release Cos-7 (optical density)” value (Cos-7 cells; 8.5 µM)?
**A.** 0.80 OD

**Q.** What about the “Concentrations with a safety profile toward Cos-7” value (Cos-7 cells; LDH test) of the same compound?
**A.** ≤ 4.3 µM

**Q.** And the “IC50 HepG2 cell” value (HepG2 cells)?
**A.** 11.31 ± 1.54 µg/mL

**Q.** And the “Cell viability HTLA-ER” value (HTLA-ER cells; 0.5 µM, 24 h, series 0.5–50 µM)?
**A.** not significantly different from that of controls

**Q.** And the “Fold lower IC50 on HTLA-ER than that of ETO” value (HTLA-ER cells; 24 h, ETO IC50 592 µM from ref 58)?
**A.** 538 fold

**Q.** And the “Cell viability HTLA-ER” value (HTLA-ER cells; [3])?
**A.** 14.3%

**Q.** What about the IC50 (HTLA-ER cells; [4]) of the same compound?
**A.** 1110 nM

**Q.** And the IC50 (HTLA-ER cells; 48 h exposure, refined concentration range 0.1–2 µM)?
**A.** 930 ± 95.6 nM

**Q.** What about the IC50 (HTLA-ER cells; 72 h exposure, refined concentration range 0.1–2 µM) of the same compound?
**A.** 833 ± 68.5 nM

**Q.** And the IC50 (HTLA-ER cells; Homo sapiens, 24 h, 24 h exposure, concentration range 0.5–50 µM)?
**A.** 1850 ± 392 nM

**Q.** What about the IC50 (HTLA-ER cells; Homo sapiens, 24 h, 24 h exposure, refined concentration range 0.1–2 µM) of the same compound?
**A.** 1100 nM

**Q.** And the IC50 (HTLA-ER cells; Homo sapiens, 48 h, 48 h exposure, concentration range 0.5–50 µM)?
**A.** 732 ± 159 nM

**Q.** And the IC50 (HTLA-ER cells; Homo sapiens, 48 h, 48 h exposure, refined concentration range 0.1–2 µM)?
**A.** 900 nM

**Q.** What about the IC50 (HTLA-ER cells; Homo sapiens, 72 h, 72 h exposure, concentration range 0.5–50 µM) of the same compound?
**A.** 892 ± 167 nM

**Q.** What about the IC50 (HTLA-ER cells; Homo sapiens, 72 h, 72 h exposure, refined concentration range 0.1–2 µM) of the same compound?
**A.** 800 nM

**Q.** What about the IC50 (HTLA-ER cells; Homo sapiens, 72 h, over 24, 48, 72 h, range 0.1–2 µM) of the same compound?
**A.** 800 to 1100 nM

**Q.** And the viability at 0.5 µM (HTLA-ER cells; Homo sapiens, 0.5 µM, 48 h, series 0.5–50 µM)?
**A.** 54.1%

**Q.** What about the viability at 0.5 µM (HTLA-ER cells; Homo sapiens, 0.5 µM, 72 h, series 0.5–50 µM) of the same compound?
**A.** 62%

**Q.** What about the “Cell viability HTLA-ER (plateau)” value (HTLA-ER cells; concentrations above 5–10 µM up to 50 µM, all exposure times) of the same compound?
**A.** 7–8%

Reference: article PMC11434613, “The Remarkable and Selective In Vitro Cytotoxicity of Synthesized Bola-Amphiphilic Nanovesicles on Etoposide-Sensitive and -Resistant Neuroblastoma Cells” (Nanomaterials, 2024)
